This assay deals with BDF1 mice, P388 leukemia ip, median survival T/C. Description: NCI In Vivo Anticancer Drug Screen. Data for tumor model P388 Leukemia (intraperitoneal) in B6D2F1 (BDF1) mice. The settings on record: endpoint: median survival time, higher = longer survival. The essentials: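 Compound-treated tumour-bearing mice were compared with vehicle-treated controls. Survival was recorded, and the value is the treated-group measurement divided by the control-group measurement (T/C).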

Where [1] appears, read: dose: 25.0 mg/kg/injection, schedule: Q04DX003 (ip), vehicle: saline with Tween-80.
[2] abbreviates: dose: 50.0 mg/kg/injection, schedule: Q04DX003 (ip), vehicle: saline with Tween-80.
[3] abbreviates: dose: 100.0 mg/kg/injection, schedule: Q04DX003 (ip), vehicle: saline with Tween-80.
[4] abbreviates: dose: 25.0 mg/kg/injection, schedule: Q01DX009 (ip), vehicle: saline.
[5] abbreviates: dose: 50.0 mg/kg/injection, schedule: Q04DX003 (ip), vehicle: saline.
[6] abbreviates: dose: 100.0 mg/kg/injection, schedule: Q04DX003 (ip), vehicle: Klucel (hydroxypropylcellulose) (HPC).
Where [7] appears, read: dose: 200.0 mg/kg/injection, schedule: Q04DX003 (ip), vehicle: Klucel (hydroxypropylcellulose) (HPC).
Setting [8] is: dose: 400.0 mg/kg/injection, schedule: Q04DX003 (ip), vehicle: Klucel (hydroxypropylcellulose) (HPC).

Several values for one entry are separate records, joined by “and”; a condition that tells them apart may be missing. Identical values can stand only once. Toxic doses and inconclusive results are not listed.

Here are results for twelve compounds from PubChem BioAssay AID328 (DTP/NCI, 2004).

As for `COc1ccc(C[n+]2cc([O-])on2)cc1`, the T/C was 100 % of control under setting [1]; 100 % of control under setting [2]; 109 % of control and 113 % of control under setting [3]; 113 % of control (dose: 200.0 mg/kg/injection, schedule: Q04DX003 (ip), vehicle: saline with Tween-80).
As for `O=C1CC2(C(=O)N1CN1CCN(c3ccc(F)cc3)CC1)c1ccccc1-c1ccccc12` (tested in a mixture with another compound), the T/C is 101 % of control and 107 % of control and 121 % of control under setting [1]; 91 % of control and 101 % of control under setting [2]; 97 % of control and 105 % of control under setting [3].
Turning to `Cc1nc2ccc(O)cc2cc1CBr`, the T/C is 94 % of control and 105 % of control and 106 % of control (dose: 6.25 mg/kg/injection, schedule: Q01DX009 (ip), vehicle: saline); 98 % of control (dose: 6.25 mg/kg/injection, schedule: Q04DX003 (ip), vehicle: saline); 101 % of control and 113 % of control and 118 % of control (dose: 12.5 mg/kg/injection, schedule: Q01DX009 (ip), vehicle: saline); 107 % of control (dose: 12.5 mg/kg/injection, schedule: Q04DX003 (ip), vehicle: saline); 112 % of control and 119 % of control under setting [4]; 107 % of control (dose: 25.0 mg/kg/injection, schedule: Q04DX003 (ip), vehicle: saline). The T/C is 103 % of control (dose: 40.0 mg/kg/injection, schedule: Q01DX009 (ip), vehicle: saline) and 107 % of control under setting [5].
On to `CCOC(=O)C(=O)N(Cc1cnc2nc(N)[nH]c(=O)c2n1)c1ccc(C(=O)NC(CCC(=O)O)C(=O)O)cc1` (stereo unspecified), for which the T/C is, setting by setting: under setting [5], 96 % of control; (dose: 100.0 mg/kg/injection, schedule: Q04DX003 (ip), vehicle: saline) 103 % of control; (dose: 200.0 mg/kg/injection, schedule: Q04DX003 (ip), vehicle: saline) 116 % of control.
As for `CCCCC(CC)(CC(=O)O)CC(=O)O`, the T/C (dose: 40.0 mg/kg/injection, schedule: Q01DX010 (ip), vehicle: water) is 118 % of control.
As for `O=c1[nH]c(=O)n(C2CC(O)C(CO)O2)cc1F` (stereo unspecified), the T/C is 113 % of control (dose: 5.0 mg/kg/injection, schedule: Q01DX010 (ip), vehicle: saline); 172 % of control (dose: 15.0 mg/kg/injection, schedule: Q03HX024 (ip), vehicle: saline); 186 % of control (dose: 22.0 mg/kg/injection, schedule: Q03HX024 (ip), vehicle: saline); 186 % of control under setting [4]; 173 % of control (dose: 33.0 mg/kg/injection, schedule: Q01DX009 (ip), vehicle: saline); 200 % of control (dose: 34.0 mg/kg/injection, schedule: Q03HX024 (ip), vehicle: saline). The T/C is 168 % of control and 172 % of control and 200 % of control (dose: 40.0 mg/kg/injection, schedule: Q01DX009 (ip), vehicle: water); 166 % of control (dose: 44.0 mg/kg/injection, schedule: Q01DX009 (ip), vehicle: saline); 202 % of control (dose: 49.0 mg/kg/injection, schedule: Q01DX009 (ip), vehicle: saline); 218 % of control (dose: 50.0 mg/kg/injection, schedule: Q01DX009 (ip), vehicle: saline); 215 % of control (dose: 50.0 mg/kg/injection, schedule: Q03HX024 (ip), vehicle: saline); 190 % of control (2×) and 195 % of control (dose: 60.0 mg/kg/injection, schedule: Q01DX009 (ip), vehicle: water). Also, the T/C was 185 % of control (dose: 67.0 mg/kg/injection, schedule: Q01DX009 (ip), vehicle: saline); 202 % of control (dose: 73.0 mg/kg/injection, schedule: Q01DX009 (ip), vehicle: saline); 169 % of control and 183 % of control and 186 % of control (dose: 74.0 mg/kg/injection, schedule: Q01DX009 (ip), vehicle: saline); 190 % of control and 200 % of control and 222 % of control (dose: 80.0 mg/kg/injection, schedule: Q01DX009 (ip), vehicle: water); 109 % of control and 206 % of control (dose: 100.0 mg/kg/injection, schedule: Q01DX009 (ip), vehicle: saline); 157 % of control (dose: 155.0 mg/kg/injection, schedule: Q04DX004 (ip), vehicle: saline). The T/C was 109 % of control (dose: 165.0 mg/kg/injection, schedule: Q01DX009 (ip), vehicle: saline); 124 % of control (dose: 205.0 mg/kg/injection, schedule: Q01DX001 (ip), vehicle: saline); 170 % of control (dose: 233.0 mg/kg/injection, schedule: Q04DX004 (ip), vehicle: saline); 190 % of control (dose: 350.0 mg/kg/injection, schedule: Q04DX004 (ip), vehicle: saline); 110 % of control (dose: 525.0 mg/kg/injection, schedule: Q04DX004 (ip), vehicle: saline); 157 % of control (dose: 685.0 mg/kg/injection, schedule: Q01DX001 (ip), vehicle: saline). For the same compound, the T/C (dose: 1025.0 mg/kg/injection, schedule: Q01DX001 (ip), vehicle: saline) is 172 % of control.
Consider `CCSc1ncc2cnccn12`, for which the T/C is 108 % of control (dose: 0.37 mg/kg/injection, schedule: Q01DX009 (ip), vehicle: water); 111 % of control and 112 % of control (dose: 0.75 mg/kg/injection, schedule: Q01DX009 (ip), vehicle: water); 102 % of control (dose: 1.0 mg/kg/injection, schedule: Q01DX009 (ip), vehicle: water); 112 % of control and 117 % of control and 120 % of control (dose: 1.5 mg/kg/injection, schedule: Q01DX009 (ip), vehicle: water); 94 % of control and 105 % of control (dose: 2.0 mg/kg/injection, schedule: Q01DX009 (ip), vehicle: water); 100 % of control (dose: 3.12 mg/kg/injection, schedule: Q04DX003 (ip), vehicle: water). In addition, the T/C was 94 % of control and 100 % of control (dose: 4.0 mg/kg/injection, schedule: Q01DX009 (ip), vehicle: water); 91 % of control (dose: 5.0 mg/kg/injection, schedule: Q01DX009 (ip), vehicle: water); 88 % of control and 104 % of control (dose: 6.0 mg/kg/injection, schedule: Q01DX009 (ip), vehicle: water); 100 % of control (dose: 6.25 mg/kg/injection, schedule: Q04DX003 (ip), vehicle: water); 102 % of control (dose: 12.5 mg/kg/injection, schedule: Q04DX003 (ip), vehicle: water); 89 % of control (dose: 16.0 mg/kg/injection, schedule: Q01DX009 (ip), vehicle: water).
Take `NS(=O)(=O)c1ccc(NC2OCC(O)C(O)C2O)cc1` (stereo unspecified): the T/C is 95 % of control (dose: 100.0 mg/kg/injection, schedule: Q01DX009 (ip), vehicle: saline with Tween-80); 90 % of control (dose: 200.0 mg/kg/injection, schedule: Q01DX009 (ip), vehicle: saline with Tween-80); 100 % of control (dose: 400.0 mg/kg/injection, schedule: Q01DX009 (ip), vehicle: saline with Tween-80).
Turning to `COC(=O)C1CCCC23CC(CC12)C(C)(C)C3Br` (stereo unspecified), the T/C runs as follows: under setting [6], 95 % of control; under setting [7], 100 % of control; under setting [8], 90 % of control.
Consider `CCSC(=O)N1c2ccc(C)cc2C=CC1C#N` (stereo unspecified), for which the T/C (dose: 62.5 mg/kg/injection, schedule: Q01DX001 (ip), vehicle: saline with Tween-80) was 113 % of control; the T/C (dose: 125.0 mg/kg/injection, schedule: Q01DX001 (ip), vehicle: saline with Tween-80) is 104 % of control; the T/C (dose: 250.0 mg/kg/injection, schedule: Q01DX001 (ip), vehicle: saline with Tween-80) is 122 % of control.
Take `COC(=O)c1ccccc1NC(=O)NCCBr`: the T/C under setting [6] is 90 % of control, the T/C under setting [7] was 100 % of control and the T/C under setting [8] was 104 % of control.
For `CC(C)(C)C1CCC(O)C(Cl)C1` (stereo unspecified), the T/C runs as follows: (dose: 50.0 mg/kg/injection, schedule: Q04DX003 (ip), vehicle: Klucel (hydroxypropylcellulose) (HPC)) 95 % of control; under setting [6], 109 % of control; under setting [7], 109 % of control.
